In patent US6355632B1, “Naphthyl compounds, intermediates, compositions, and methods” (Eli Lilly and Company, priority 1995, dated 2002):
Where a name gives a salt, the structure may show the parent alone.

`COc1ccc(-c2ccc3cc(OC)ccc3c2Oc2ccc(OCCN3CCCCC3)cc2)cc1` (as salt: hydrochloride) [Example 4, 1-[4-[2-(1-piperdinyl)ethoxy]phenoxy]-2-(4-methoxyphenyl)-6-methoxynaphthalene hydrochloride] showed a melting point of 184 to 188 °C.
